# Measurements taken from US11161854B2, “Indazolyl-spiro[2.2]pentane-carbonitrile derivatives as LRRK2 inhibitors, pharmaceutical compositions, and uses thereof” (Merck Sharp & Dohme Corp., priority 2017, dated 2021).
# Target: GST-tagged truncated human mutant G2019S LRRK2 (Homo sapiens (Human), UniProt Q5S007, G2019S)
# Experiment: LRRK2 G2019S Km ATP LanthaScreen Assay
# Type: biochemical
# Details: 134 μM ATP (Km ATP); fluorescein-labeled LRRKtide substrate; mean IC50 values
# Protocol: The IC50 values reported herein were measured as follows.
# Biological Assay: LRRK2 Km ATP LanthaScreen™ Assay
# The data presented for the Km ATP LanthaScreen™ Assay represents mean IC50 values based on several test results and may have reasonable deviations depending on the specific conditions and reagents used. Assays were performed in the presence of 134 μM ATP (Km ATP). Upon completion, the assay was stopped and phosphorylated substrate detected with a terbium (Tb)-labeled anti-pERM antibody (cat. no. PV4898). The compound dose response was prepared by diluting a 10 mM stock of compound to a maximum concentration of […] in 100% dimethylsulfoxide followed by custom fold serial dilution in dimethylsulfoxide nine times. Twenty nanoliters of each dilution was spotted via a Labcyte Echo onto a 384-well black-sided plate (Corning 3575) followed by 15 μl of a 1.25 nM enzyme solution in 1× assay buffer (50 mM Tris pH 8.5, 10 mM MgCl2, 0.01% Brij-35, 1 mM EGTA, 2 mM dithiothreitol, 0.05 mM sodium orthovanadate). Following a 15-minute incubation at room temperature, the kinase reaction was started with the addition of 5 μl of 400 nM fluorescein-labeled LRRKtide peptide substrate and 134 μM ATP solution in 1× assay buffer. The reaction was allowed to progress at ambient temperature for 90 minutes. The reaction was then stopped by the addition of 20 μl of TR-FRET Dilution Buffer (Life Technologies, Carlsbad, Calif.) containing 2 nM Tb-labeled anti-phospho LRRKtide antibody and 10 mM EDTA (Life Technologies, Carlsbad, Calif.). After an incubation of 1 hour at room temperature, the plate was read on an EnVision multimode plate reader (Perkin Elmer, Waltham, Mass.) with an excitation wavelength of 337 nm (Laser) and a reading emission at both 520 and 495 nm. […] Abase uses a 4 parameter (4P) logistic fit based on the Levenberg-Marquardt algorithm.
# Chain of GST-tagged truncated human mutant G2019S LRRK2 (Q5S007 970-2527 G2019S): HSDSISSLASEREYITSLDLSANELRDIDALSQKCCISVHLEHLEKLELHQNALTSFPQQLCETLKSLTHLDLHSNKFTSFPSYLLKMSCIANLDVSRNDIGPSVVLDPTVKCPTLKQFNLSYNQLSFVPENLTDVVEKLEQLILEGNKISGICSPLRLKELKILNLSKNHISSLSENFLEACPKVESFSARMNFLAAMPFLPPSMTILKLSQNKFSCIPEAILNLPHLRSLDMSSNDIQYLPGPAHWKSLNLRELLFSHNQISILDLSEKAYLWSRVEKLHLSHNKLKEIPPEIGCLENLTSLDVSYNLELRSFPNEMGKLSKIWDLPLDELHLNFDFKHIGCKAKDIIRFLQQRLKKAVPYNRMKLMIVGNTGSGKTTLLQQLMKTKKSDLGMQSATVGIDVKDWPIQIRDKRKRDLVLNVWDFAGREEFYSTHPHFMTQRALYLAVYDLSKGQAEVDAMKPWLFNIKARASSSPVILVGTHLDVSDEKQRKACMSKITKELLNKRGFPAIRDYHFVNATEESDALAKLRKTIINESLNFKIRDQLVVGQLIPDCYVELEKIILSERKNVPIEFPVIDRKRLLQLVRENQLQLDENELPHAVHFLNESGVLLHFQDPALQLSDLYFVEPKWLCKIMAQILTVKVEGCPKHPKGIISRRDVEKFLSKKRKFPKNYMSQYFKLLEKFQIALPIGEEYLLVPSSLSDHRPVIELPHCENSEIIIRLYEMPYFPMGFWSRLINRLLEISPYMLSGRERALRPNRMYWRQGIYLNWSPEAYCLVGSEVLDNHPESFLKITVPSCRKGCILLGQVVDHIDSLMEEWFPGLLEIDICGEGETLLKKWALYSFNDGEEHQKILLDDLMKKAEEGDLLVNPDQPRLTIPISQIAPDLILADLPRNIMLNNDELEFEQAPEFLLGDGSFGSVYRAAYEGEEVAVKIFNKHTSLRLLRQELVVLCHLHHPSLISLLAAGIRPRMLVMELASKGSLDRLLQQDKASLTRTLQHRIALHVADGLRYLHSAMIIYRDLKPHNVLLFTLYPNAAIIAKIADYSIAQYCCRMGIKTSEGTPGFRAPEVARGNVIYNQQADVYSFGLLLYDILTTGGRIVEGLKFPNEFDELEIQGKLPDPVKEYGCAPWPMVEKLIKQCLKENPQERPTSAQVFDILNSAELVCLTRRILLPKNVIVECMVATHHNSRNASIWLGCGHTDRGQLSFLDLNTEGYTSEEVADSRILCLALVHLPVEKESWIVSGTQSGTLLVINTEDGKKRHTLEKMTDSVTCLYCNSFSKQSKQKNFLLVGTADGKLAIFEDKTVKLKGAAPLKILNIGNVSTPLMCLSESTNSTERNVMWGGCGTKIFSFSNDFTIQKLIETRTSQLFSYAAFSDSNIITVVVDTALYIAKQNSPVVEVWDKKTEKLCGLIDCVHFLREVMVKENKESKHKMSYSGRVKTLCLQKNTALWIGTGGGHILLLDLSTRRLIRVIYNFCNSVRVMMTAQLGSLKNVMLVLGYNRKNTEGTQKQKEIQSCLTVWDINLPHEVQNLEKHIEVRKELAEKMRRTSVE
row,Structure (SMILES),IC50
1,"Cc1cc(-n2ncc3ccc(C4(C#N)CC45CC5)cc32)cc(N2CC3(C(C)(C)O)CC2C3)n1 (single isomer, unassigned) [Example 7.3-2, (R or S)-1-(1-(2-(4-(2-hydroxypropan-2-yl)-2-azabicyclo[2.1.1]hexan-2-yl)-6-methylpyridin-4-yl)-1H-indazol-6-yl)spiro[2.2]pentane-1-carbonitrile]",4.6 nM
2,"CC(C)(O)C12CC(C1)N(c1cc(-n3ncc4ccc(C5(C#N)CC56CC6)cc43)cnn1)C2 (single isomer, unassigned) [Example 10.3-1, (R or S)-1-(1-(6-(4-(2-hydroxypropan-2-yl)-2-azabicyclo[2.1.1]hexan-2-yl)pyridazin-4-yl)-1H-indazol-6-yl)spiro[2.2]pentane-1-carbonitrile]",35.2 nM
3,"CC(C)(O)C12CC(C1)N(c1cc(-n3ncc4ccc(C5(C#N)CC56CC6)cc43)cnn1)C2 (single isomer, unassigned) [Example 10.3-2, (R or S)-1-(1-(6-(4-(2-hydroxypropan-2-yl)-2-azabicyclo[2.1.1]hexan-2-yl)pyridazin-4-yl)-1H-indazol-6-yl)spiro[2.2]pentane-1-carbonitrile]",15.4 nM
4,"CC(C)(O)[C@@H]1CCN(c2cc(-n3ncc4ccc(C5(C#N)CC56CC6)cc43)cnn2)C1 (single isomer, unassigned) [Example 10.4-1]",18.7 nM
5,"CC(C)(O)[C@@H]1CCN(c2cc(-n3ncc4ccc(C5(C#N)CC56CC6)cc43)cnn2)C1 (single isomer, unassigned) [Example 10.4-2]",2.7 nM
6,"Cc1nc(N2CC3(CN(CC(F)(F)F)C3)C2)cc(-n2ncc3cnc(C4(C#N)CC45CC5)cc32)n1 (single isomer, unassigned) [Example 12.1, (S or R)-1-(1-(2-methyl-6-(6-(2,2,2-trifluoroethyl)-2,6-diazaspiro[3.3]heptan-2-yl)pyrimidin-4-yl)-1H-pyrazolo[4,3-c]pyridin-6-yl)spiro[2.2]pentane-1-carbonitrile]",2.1 nM
7,"N#C[C@@]1(c2ccc3cnn(-c4cc(N5CCOC(CO)C5)ncn4)c3c2)CC12CC2 (stereo in doubt) [Example 4.9-1, 1-(1-(6-(2-(hydroxymethyl)morpholino)pyrimidin-4-yl)-1H-indazol-6-yl)spiro[2.2]pentane-1-carbonitrile]",0.6 nM
8,"CC(C)(O)[C@@H]1CCN(c2cc(-n3ncc4ccc([C@]5(C#N)CC56CC6)cc43)ncn2)C1 [Example 1.4-2, (S)-1-(1-(6-((R)-3-(2-hydroxypropan-2-yl)pyrrolidin-1-yl)pyrimidin-4-yl)-1H-indazol-6-yl)spiro[2.2]pentane-1-carbonitrile]",0.9 nM
9,N#CC1(c2ccc3cnn(-c4cc(N5CC6(CCOC6)C5)ncn4)c3c2)CC12CC2 (stereo not shown) [Example 1.5],0.9 nM
10,"CNc1nc(N2CC[C@@H](C(C)(C)O)C2)cc(-n2ncc3ccc(C4(C#N)CC45CC5)cc32)n1 (stereo partly drawn) [Example 2.6-1, 1-(1-(6-((R)-3-(2-hydroxypropan-2-yl)pyrrolidin-1-yl)-2-(methylamino)pyrimidin-4-yl)-1H-indazol-6-yl)spiro[1.2.2]pentane-1-carbonitrile]",0.8 nM
11,C[C@@H]1CN(c2cc(-n3ncc4ccc([C@]5(C#N)CC56CC6)cc43)ncn2)CCN1C1COC1 [Example 3.1-2],0.6 nM
12,C[C@@H]1CN(c2cc(-n3ncc4ccc([C@]5(C#N)CC56CC6)cc43)ncn2)C[C@H](C)[C@]1(C)O [Example 3.2],1.1 nM
13,COCc1nc(N2C[C@@H](C)[C@@](C)(O)[C@@H](C)C2)cc(-n2ncc3ccc([C@]4(C#N)CC45CC5)cc32)n1 [Example 3.3],1 nM
14,COc1nc(N2C[C@@H](C)[C@@](C)(O)[C@@H](C)C2)cc(-n2ncc3ccc([C@]4(C#N)CC45CC5)cc32)n1 [Example 3.4],1.5 nM
15,C[C@H]1CN(c2cc(-n3ncc4ccc([C@]5(C#N)CC56CC6)cc43)ncn2)CCN1C1CCOC1 (stereo partly shown) [Example 3.8-4],0.6 nM
16,CC1(O)CC2(CN(c3cc(-n4ncc5ccc([C@@]6(C#N)CC67CC7)cc54)ncn3)C2)C1 [Example 3.9-1],2.5 nM
17,CC1(O)CC2(CN(c3cc(-n4ncc5ccc([C@]6(C#N)CC67CC7)cc54)ncn3)C2)C1 [Example 3.9-2],1.5 nM
18,C[C@@H]1CN(c2cc(-n3ncc4ccc([C@]5(C#N)CC56CC6)cc43)ncn2)C[C@H](C)N1C1COC1 [Example 4.1],0.6 nM
19,CC1(O)CN(c2cc(-n3ncc4ccc([C@]5(C#N)CC56CC6)cc43)ncn2)C1 [Example 4.2],1.3 nM
20,CC(C)(O)C1CN(c2cc(-n3ncc4ccc([C@]5(C#N)CC56CC6)cc43)ncn2)C1 [Example 4.4],0.6 nM

row,Structure (SMILES),IC50
1,COCc1nc(N2CC(OC)C2)cc(-n2ncc3ccc([C@]4(C#N)CC45CC5)cc32)n1 [Example 4.5],2.6 nM
2,COCc1nc(N2C[C@@H](C)N(C3COC3)[C@@H](C)C2)cc(-n2ncc3ccc([C@]4(C#N)CC45CC5)cc32)n1 [Example 4.6],0.9 nM
3,CS(=O)(=O)N1CCN(c2cc(-n3ncc4ccc([C@]5(C#N)CC56CC6)cc43)ncn2)CC1 [Example 4.7],1.3 nM
4,C[C@H]1CN(c2cc(-n3ncc4ccc([C@]5(C#N)CC56CC6)cc43)ncn2)CCN1S(C)(=O)=O [Example 4.8],1.2 nM
5,COCc1nc(N2C[C@@H](C)[C@@](C)(O)[C@@H](C)C2)cc(-n2ncc3ccc([C@]4(C#N)CC45CC5)cc32)n1 [Example 4.10],0.6 nM
6,COCc1nc(N2CCN(C3COC3)[C@H](C)C2)cc(-n2ncc3ccc([C@]4(C#N)CC45CC5)cc32)n1 [Example 4.11-1],1.3 nM
7,COCc1nc(N2CCN(C3COC3)[C@@H](C)C2)cc(-n2ncc3ccc([C@]4(C#N)CC45CC5)cc32)n1 [Example 4.11-2],0.7 nM
8,CC(C)(O)[C@H]1CN(c2cc(-n3ncc4ccc([C@]5(C#N)CC56CC6)cc43)ncn2)C[C@H]1F [Example 4.12-1],1.2 nM
9,CC(C)(O)[C@@H]1CN(c2cc(-n3ncc4ccc([C@]5(C#N)CC56CC6)cc43)ncn2)C[C@@H]1F [Example 4.12-2],0.6 nM
10,CN1CCOC2(C1)CN(c1cc(-n3ncc4ccc([C@]5(C#N)CC56CC6)cc43)ncn1)C2 [Example 4.13],0.6 nM
11,CS(=O)(=O)N1CCN(c2cc(-n3ncc4ccc([C@]5(C#N)CC56CC6)cc43)ccn2)CC1 [Example 4.14],2.8 nM
12,Cc1nc(N2CC3(C(C)(C)O)CC2C3)cc(-n2ncc3c(F)cc(C4(C#N)CC45CC5)cc32)n1 (stereo not shown) [Example 4.16],0.6 nM
13,Cc1nc(N2CCN3CCOC[C@@H]3C2)cc(-n2ncc3ccc([C@]4(C#N)CC45CC5)cc32)n1 [Example 4.17],0.6 nM
14,N#C[C@@]1(c2ccc3cnn(-c4cc(C5CCN(C6COC6)CC5)ncn4)c3c2)CC12CC2 [Example 4.18],18.7 nM
15,Cc1cc(-n2ncc3ccc([C@]4(C#N)CC45CC5)cc32)nc(N)n1 [Example 4.19],0.6 nM
16,N#C[C@@]1(c2ccc3cnn(-c4cc(C5CC5)ncn4)c3c2)CC12CC2 [Example 4.21],6.5 nM
17,Cc1cc(-n2ncc3ccc([C@]4(C#N)CC45CC5)cc32)nc(C2CC2)n1 [Example 4.23],3.2 nM
18,COCc1nc(C)cc(-n2ncc3ccc([C@]4(C#N)CC45CC5)cc32)n1 [Example 4.24],10.3 nM
19,CNc1nc(C)cc(-n2ncc3ccc([C@]4(C#N)CC45CC5)cc32)n1 [Example 4.25],3.5 nM
20,CCc1cc(-n2ncc3ccc([C@]4(C#N)CC45CC5)cc32)nc(C)n1 [Example 4.26],3.1 nM
